Test results: patent publication US8247211B2, “Glycopeptide antibiotics” (American Cyanamid Company, priority 2001, dated 2012)
≈ marks a conversion by molar mass, not a printed value.

Columns and labels:
Test in all cases: In vitro antibacterial evaluation: minimum inhibitory concentration (MIC), broth dilution method
Format in all cases: cell-based
[1] = test system: Escherichia coli; conditions: for MIC Escherichia coli (GC 4559): strain GC 4559; for MIC Escherichi coli (GC 4560): strain GC 4560
Summary of the method: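 First, organisms are seeded at 5×10^5 CFU/mL into Muller-Hinton II […]. Next, antibiotic is applied across 64-0.06 μg/mL by broth dilution (NCCLS M7-A2). Finally, the lowest inhibitory concentration is recorded as MIC.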

[2] = test system: Streptococcus sp.; conditions: for MIC Streptococcus pyogenes (GC 4563): strain GC 4563; for MIC Streptococcus agalactiae (GC 4564): strain GC 4564
Summary of the method: (§1)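 MIC by broth dilution in Mueller-Hinton II medium following NCCLS M7-A2. Inoculum was 5×10^5 CFU/mL and antibiotic was tested over 64-0.06 μg/mL. Gram-positive panel included clinical isolates resistant to methicillin, penicillin and/or vancomycin.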

[3] = test system: Enterococcus sp.; conditions: for MIC Enterococcus faecalis (ATCC 29212): strain ATCC 29212; for MIC Enterococcus faecalis (GC 2242): strain GC 2242; for MIC Enterococcus faecium (GC 2243): strain GC 2243; for MIC Enterococcus faecalis (GC 2691): strain GC 2691; for MIC Enterococcus faecalis (GC 3059): strain GC 3059; for MIC Enterococcus faecalis (GC 4552): strain GC 4552; for MIC Enterococcus faecalis (GC 4553): strain GC 4553; for MIC Enterococcus faecalis (GC 4554): strain GC 4554; for MIC Enterococcus faecium (GC 4556): strain GC 4556; for MIC Enterococcus faecium (GC 4557): strain GC 4557; for MIC Enterococcus avium (GC 4558): strain GC 4558; for MIC Enterococcus faecalis (GC 6189): strain GC 6189
Summary of the method: as §1

[4] = test system: Staphylococcus sp.; conditions: broth dilution, 18 hours at 35° C.
Summary of the method: as §1

## CC(c1ccccc1)C1NC(=O)CNC(=O)C(CO)NC(=O)C(C(O)C2CNC(=N)N2C2OC(CO)C(O)C(O)C2O)NC(=O)C(C(O)C2CNC(=N)N2)NC(=O)C(Cc2ccc(OC3OC(CO)C(OC4OC5COC(c6ccc7ccccc7c6)OC5C(O)C4O)C(O)C3O)cc2)NC1=O (stereo not drawn) [Example 145, Cyclo[glycyl-β-methylphenylalanyl-O-[4-O-[4,6-O-(2-naphthylmethylene)hexopyranosyl]-hexopyranosyl]tyrosyl-3-(2-iminoimidazolidin-4-yl)seryl-3(3-hexopyranosyl-2-iminoimidazolidin-4-yl)serylseryl]]
[1]; strain ATCC 25922
  MIC Escherichia coli (ATCC 25922): 64 µg/mL (≈ 44.6 µM)
[1]
  MIC Escherichia coli (GC 4559): 32 µg/mL (≈ 22.3 µM)
  MIC Escherichi coli (GC 4560): <0.5 µg/mL
[2]; strain ATCC 6301
  MIC Streptococcus pneumoniae (ATCC 6301): <0.5 µg/mL
[2]; strain GC 1894
  MIC Streptococcus pneumoniae (GC 1894): <0.5 µg/mL
[2]
  MIC Streptococcus pyogenes (GC 4563): 1 µg/mL (≈ 0.698 µM)
  MIC Streptococcus agalactiae (GC 4564): <0.5 µg/mL
[2]; strain GC 4565
  MIC Streptococcus pneumoniae (GC 4565): <0.5 µg/mL
[3]
  MIC Enterococcus faecalis (ATCC 29212): 1 µg/mL (≈ 0.698 µM)
  MIC Enterococcus faecalis (GC 2242): <0.5 µg/mL
  MIC Enterococcus faecium (GC 2243): 1 µg/mL (≈ 0.698 µM)
  MIC Enterococcus faecalis (GC 2691): 1 µg/mL (≈ 0.698 µM)
  MIC Enterococcus faecalis (GC 3059): 1 µg/mL (≈ 0.698 µM)
  MIC Enterococcus faecalis (GC 4552): 1 µg/mL (≈ 0.698 µM)
  MIC Enterococcus faecalis (GC 4553): 2 µg/mL (≈ 1.4 µM)
  MIC Enterococcus faecalis (GC 4554): 1 µg/mL (≈ 0.698 µM)
  MIC Enterococcus faecium (GC 4556): 1 µg/mL (≈ 0.698 µM)
  MIC Enterococcus faecium (GC 4557): 1 µg/mL (≈ 0.698 µM)
  MIC Enterococcus avium (GC 4558): 1 µg/mL (≈ 0.698 µM)
  MIC Enterococcus faecalis (GC 6189): 1 µg/mL (≈ 0.698 µM)
[4]; 5×10^5 CFU/mL
  MIC Coagulase Negative Staphylococcus (GC 4547): 1 µg/mL (≈ 0.698 µM)
  MIC Coagulase Negative Staphylococcus (GC 4548): <0.5 µg/mL
  MIC Coagulase Negative Staphylococcus (GC 4549): 1 µg/mL (≈ 0.698 µM)
  MIC Coagulase Negative Staphylococcus (GC 4551): <0.5 µg/mL
  MIC Coagulase Negative Staphylococcus (GC 6257): 0.5 µg/mL (≈ 0.349 µM)
  MIC Staphylococcus aureus (ATCC 29213): 1 µg/mL (≈ 0.698 µM)
  MIC Staphylococcus aureus (GC 1131): <0.5 µg/mL
  MIC Staphylococcus aureus (GC 3051): 1 µg/mL (≈ 0.698 µM)
  MIC Staphylococcus aureus (GC 3053): 1 µg/mL (≈ 0.698 µM)
  MIC Staphylococcus aureus (GC 4541): <0.5 µg/mL
  MIC Staphylococcus aureus (GC 4542): <0.5 µg/mL
  MIC Staphylococcus aureus (GC 4544): 1 µg/mL (≈ 0.698 µM)
  MIC Staphylococcus aureus (GC 4545): 1 µg/mL (≈ 0.698 µM)
  MIC Staphylococcus aureus-SMITH (GC 4543): <0.5 µg/mL
  MIC Staphylococcus haemolyticus (GC 4546): <0.5 µg/mL
[4]; strain ATCC 29213
  MIC Staphylococcus aureus (ATCC 29213): 1 µg/mL (≈ 0.698 µM)
[4]; strain GC 1131
  MIC Staphylococcus aureus (GC 1131): <0.5 µg/mL
[4]; strain GC 3051
  MIC Staphylococcus aureus (GC 3051): 1 µg/mL (≈ 0.698 µM)
[4]; strain GC 3053
  MIC Staphylococcus aureus (GC 3053): 1 µg/mL (≈ 0.698 µM)
[4]; strain GC 4541
  MIC Staphylococcus aureus (GC 4541): <0.5 µg/mL
[4]; strain GC 4542
  MIC Staphylococcus aureus (GC 4542): <0.5 µg/mL
[4]; strain GC 4543
  MIC Staphylococcus aureus-SMITH (GC 4543): <0.5 µg/mL
[4]; strain GC 4544
  MIC Staphylococcus aureus (GC 4544): 1 µg/mL (≈ 0.698 µM)
[4]; strain GC 4545
  MIC Staphylococcus aureus (GC 4545): 1 µg/mL (≈ 0.698 µM)
[4]; strain GC 4546
  MIC Staphylococcus haemolyticus (GC 4546): <0.5 µg/mL
[4]; strain GC 4547
  MIC Coagulase Negative Staphylococcus (GC 4547): 1 µg/mL (≈ 0.698 µM)
[4]; strain GC 4548
  MIC Coagulase Negative Staphylococcus (GC 4548): <0.5 µg/mL
[4]; strain GC 4549
  MIC Coagulase Negative Staphylococcus (GC 4549): 1 µg/mL (≈ 0.698 µM)
[4]; strain GC 4551
  MIC Coagulase Negative Staphylococcus (GC 4551): <0.5 µg/mL
[4]; strain GC 6257
  MIC Coagulase Negative Staphylococcus (GC 6257): 0.5 µg/mL (≈ 0.349 µM)

## CC(c1ccccc1)C1NC(=O)CNC(=O)C(CO)NC(=O)C(C(O)C2CNC(=N)N2C2OC(CO)C(O)C(O)C2O)NC(=O)C(C(O)C2CNC(=N)N2)NC(=O)C(Cc2ccc(OC3OC(CO)C(OC4OC5COC(c6ccc(C(C)(C)C)cc6)OC5C(O)C4O)C(O)C3O)cc2)NC1=O (stereo not drawn) [Example 147, Cyclo[glycyl-β-methylphenylalanyl-O-[4-O-[4,6-O-(4-tert-butylbenzylidene)hexonyranosyl]-hexopyranosyl]tyrosyl-3-(2-iminoimidazolidin-4-yl)seryl-3-(3-hexopyranosyl-2-iminoimidazolidin-4-yl)serylseryl]]
[1]
  MIC Escherichia coli (GC 4559): 64 µg/mL (≈ 44.5 µM)
  MIC Escherichi coli (GC 4560): 0.5 to 2 µg/mL
[2]
  MIC Streptococcus pyogenes (GC 4563): >0.12 µg/mL
  MIC Streptococcus agalactiae (GC 4564): <0.12 µg/mL
[2]; strain ID-3187
  MIC Streptococcus pyogenes (ID-3187): <0.5 µg/mL
[3]
  MIC Enterococcus faecalis (ATCC 29212): 0.5 to 2 µg/mL
  MIC Enterococcus faecalis (GC 2242): 0.5 to 1 µg/mL
  MIC Enterococcus faecium (GC 2243): 1 to 2 µg/mL
  MIC Enterococcus faecalis (GC 2691): 0.5 µg/mL (≈ 0.347 µM)
  MIC Enterococcus faecalis (GC 3059): 0.5 µg/mL (≈ 0.347 µM)
  MIC Enterococcus faecalis (GC 4552): 0.5 to 1 µg/mL
  MIC Enterococcus faecalis (GC 4553): 0.5 to 1 µg/mL
  MIC Enterococcus faecalis (GC 4554): 0.5 to 1 µg/mL
  MIC Enterococcus faecium (GC 4556): 2 µg/mL (≈ 1.39 µM)
  MIC Enterococcus faecium (GC 4557): 1 to 2 µg/mL
  MIC Enterococcus avium (GC 4558): 0.5 to 2 µg/mL
  MIC Enterococcus faecalis (GC 6189): 0.5 µg/mL (≈ 0.347 µM)
[4]; 5×10^5 CFU/mL
  MIC Coagulase Negative Staphylococcus (GC 4547): 1 to 2 µg/mL
  MIC Coagulase Negative Staphylococcus (GC 4548): <0.5 to 1 µg/mL
  MIC Coagulase Negative Staphylococcus (GC 4549): <0.5 to 1 µg/mL
  MIC Coagulase Negative Staphylococcus (GC 4551): 1 µg/mL (≈ 0.695 µM)
  MIC Coagulase Negative Staphylococcus (GC 6257): 2 µg/mL (≈ 1.39 µM)
  MIC Coagulase Negative Staphylococcus (ID-3941): 1 µg/mL (≈ 0.695 µM)
  MIC Staphylococcus aureus (GC 3051): 0.5 µg/mL (≈ 0.347 µM)
  MIC Staphylococcus aureus (GC 3053): 0.5 µg/mL (≈ 0.347 µM)
  MIC Staphylococcus aureus (GC 4542): 0.5 to 1 µg/mL
  MIC Staphylococcus aureus (GC 4544): 0.5 to 1 µg/mL
  MIC Staphylococcus aureus (GC 4545): 0.5 to 1 µg/mL
  MIC Staphylococcus aureus-SMITH (GC 4543): 0.5 to 1 µg/mL
  MIC Staphylococcus haemolyticus (GC 4546): 1 to 2 µg/mL
[4]; strain GC 3051
  MIC Staphylococcus aureus (GC 3051): 0.5 µg/mL (≈ 0.347 µM)
[4]; strain GC 3053
  MIC Staphylococcus aureus (GC 3053): 0.5 µg/mL (≈ 0.347 µM)
[4]; strain GC 4542
  MIC Staphylococcus aureus (GC 4542): 0.5 to 1 µg/mL
[4]; strain GC 4543
  MIC Staphylococcus aureus-SMITH (GC 4543): 0.5 to 1 µg/mL
[4]; strain GC 4544
  MIC Staphylococcus aureus (GC 4544): 0.5 to 1 µg/mL
[4]; strain GC 4545
  MIC Staphylococcus aureus (GC 4545): 0.5 to 1 µg/mL
[4]; strain GC 4546
  MIC Staphylococcus haemolyticus (GC 4546): 1 to 2 µg/mL
[4]; strain GC 4547
  MIC Coagulase Negative Staphylococcus (GC 4547): 1 to 2 µg/mL
[4]; strain GC 4548
  MIC Coagulase Negative Staphylococcus (GC 4548): <0.5 to 1 µg/mL
[4]; strain GC 4549
  MIC Coagulase Negative Staphylococcus (GC 4549): <0.5 to 1 µg/mL
[4]; strain GC 4551
  MIC Coagulase Negative Staphylococcus (GC 4551): 1 µg/mL (≈ 0.695 µM)
[4]; strain GC 6257
  MIC Coagulase Negative Staphylococcus (GC 6257): 2 µg/mL (≈ 1.39 µM)
[4]; strain ID-3941
  MIC Coagulase Negative Staphylococcus (ID-3941): 1 µg/mL (≈ 0.695 µM)
